Experimental data taken from patent publication US12617783B2, “Heterocyclic GLP-1R agonists” (BIOMEA FUSION, INC., priority 2024, dated 2026).

These compounds were tested against T1, human GLP-1R (Homo sapiens, UniProt P43220) (assay: GLP-1R cAMP assay (Example B1b, HTRF, 30 min at 37°)). Settings: cAMP accumulation in HEK293 expressing human GLP-1R, no BETP, 30 min at 37° (Method B1b), Table 1.
T1 construct: host or cells: HEK293
Assay type: cell-based
Protocol: Assay was carried out with HEK293 expressing human GLP-1R using HTRF assay, developed by Wuxi Apptec. The method is a competitive assay between native cAMP produced by the cells and exogenous cAMP labeled with a proprietary dye d2. The tracer binding is visualized by a mAb anti-cAMP labeled with Cryptate. The signal (i.e. energy transfer) is inversely proportional to the concentration of CAMP in either standard or experimental sample. Compounds were tested in the absence of BETP. Ten microliter of cell suspension in assay buffer (5 mM HEPES, 500 μM IBMX, 0.1% BSA) were added to each well (1,000 cells per well) in a low volume 384-well plate for the assay. Serially diluted compounds were added in 100 nL volume to duplicate wells, by Labcyte Echo. GLP-1 (7-37) was used as positive control. Assay plate was incubated for 30 minutes at 37°. Stock of cAMP Detection Solution was prepared by mixing 38 parts of cAMP lysis buffer, 1 part of cAMP-D2, 1 part of anti-cAMP cryptate reagent (Cisbio #62AM4PEJ). Ten microliter of the cAMP Detection Solution was added to each well, and the assay plate was incubated for 1 hour at room temperature in the dark. Plates were read on Envision plate reader. The data were analyzed by ScreenUltra in Dotmatics, with % activation expressed using following formula: (Signal ratio […]*10000−negative control)/(postive control−negative control)*100. Dose response curves were plotted and EC50 values calculated by non-linear regression using 4-parameter fit. The potency (EC50) values for cAMP accumulation in HEK293 cells are reported in the Table 1 below (for compounds ID 610-708).

T1 sequence (P43220 24-463): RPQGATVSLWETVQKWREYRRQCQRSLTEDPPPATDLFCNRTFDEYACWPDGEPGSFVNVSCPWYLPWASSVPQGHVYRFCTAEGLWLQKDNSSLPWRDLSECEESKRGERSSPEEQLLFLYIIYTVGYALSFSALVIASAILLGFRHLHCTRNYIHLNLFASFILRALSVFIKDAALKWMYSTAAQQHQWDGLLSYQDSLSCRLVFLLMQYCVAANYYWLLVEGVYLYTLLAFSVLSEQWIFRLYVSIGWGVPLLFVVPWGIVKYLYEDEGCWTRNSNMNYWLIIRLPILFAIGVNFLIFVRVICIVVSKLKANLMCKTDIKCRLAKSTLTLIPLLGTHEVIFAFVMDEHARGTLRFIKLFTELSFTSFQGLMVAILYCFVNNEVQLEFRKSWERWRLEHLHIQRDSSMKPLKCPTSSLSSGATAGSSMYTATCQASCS

Compound | EC50 [µM]
Cc1cc(-n2nc3c(c2-n2ccn(-c4ccc5ccncc5c4F)c2=O)[C@@H]2CCC[C@H](C3)N2C(=O)c2cc3cc([C@H]4CCOC5(CC5)C4)ccc3n2[C@@]2(c3noc(=O)[nH]3)C[C@@H]2C)cc(C)c1F [Compound 610, 3-((1S,2S)-1-(2-((4S,8R)-2-(4-fluoro-3,5-dimethylphenyl)-3-(3-(8-fluoroisoquinolin-7-yl)-2-oxo-2,3-dihydro-1H-imidazol-1-yl)-4,5,6,7,8,9-hexahydro-2H-4,8-epiminocycloocta [c]pyrazole-10-carbonyl)-5-((S)-4-oxaspiro[2.5]octan-7-yl)-1H-indol-1-yl)-2-methylcyclopropyl)-1,2,4-oxadiazol-5 (4H)-one] | 0.0008
Cc1cc(-n2nc3c(c2-n2ccn(-c4ccc5c(cnn5C5CC5)c4F)c2=O)[C@@H]2COC[C@H](C3)N2C(=O)c2cc3cc(C4CCOCC4)ccc3n2[C@@]2(c3noc(=O)[nH]3)C[C@@H]2C)cc(C)c1F [Compound 715, 3-((1S,2S)-1-(2-((4R,8S)-3-(3-(1-cyclopropyl-4-fluoro-1H-indazol-5-yl)-2-oxo-2,3-dihydro-1H-imidazol-1-yl)-2-(4-fluoro-3,5-dimethylphenyl)-2,4,5,7,8,9-hexahydro-4,8-epiminooxocino [5,4-c]pyrazole-10-carbonyl)-5-(tetrahydro-2H-pyran-4-yl)-1H-indol-1-yl)-2-methylcyclopropyl)-1,2,4-oxadiazol-5 (4H)-one] | 0.004
Cc1cc(-n2nc3c(c2-n2ccn(-c4ccc5c(cnn5C)c4F)c2=O)[C@@H]2CCC[C@H](C3)N2C(=O)c2cc3cc(C4CCOC(C)(C)C4)cc(F)c3n2[C@@]2(c3noc(=O)[nH]3)C[C@@H]2C)cc(C)c1F (stereo partly drawn) [Compound 615, 3-((1S,2S)-1-(5-(2,2-dimethyltetrahydro-2H-pyran-4-yl)-7-fluoro-2-((4S,8R)-3-(3-(4-fluoro-1-methyl-1H-indazol-5-yl)-2-oxo-2,3-dihydro-1H-imidazol-1-yl)-2-(4-fluoro-3,5-dimethylphenyl)-4,5,6,7,8,9-hexahydro-2H-4,8-epiminocycloocta [c]pyrazole-10-carbonyl)-1H-indol-1-yl)-2-methylcyclopropyl)-1,2,4-oxadiazol-5 (4H)-one] | 0.0142

The next lines start with the values.

EC50 [µM] | Compound
0.0025 | Cc1cc(-n2nc3c(c2-n2ccn(-c4ccc5c(cnn5C)c4F)c2=O)[C@@H]2CCC[C@H](C3)N2C(=O)c2cc3cc([C@H]4CCOC(C)(C)C4)cc(F)c3n2[C@@]2(c3noc(=O)[nH]3)C[C@@H]2C)cc(C)c1F [Compound 707, 3-((1S,2S)-1-(5-((S)-2,2-dimethyltetrahydro-2H-pyran-4-yl)-7-fluoro-2-((4S,8R)-3-(3-(4-fluoro-1-methyl-1H-indazol-5-yl)-2-oxo-2,3-dihydro-1H-imidazol-1-yl)-2-(4-fluoro-3,5-dimethylphenyl)-4,5,6,7,8,9-hexahydro-2H-4,8-epiminocycloocta [c]pyrazole-10-carbonyl)-1H-indol-1-yl)-2-methylcyclopropyl)-1,2,4-oxadiazol-5 (4H)-one]
0.005 | Cc1cc(-n2nc3c(c2-n2ccn(-c4ccc5c(cnn5C)c4F)c2=O)[C@@H]2CC[C@H](C3)N2C(=O)c2cc3cc(C4CCOC(C)(C)C4)c(F)cc3n2[C@@]2(c3noc(=O)[nH]3)C[C@@H]2C)cc(C)c1F (stereo partly drawn) [Compound 716, 3-[(1S,2S)-1-[5-(2,2-dimethyltetrahydropyran-4-yl)-6-fluoro-2-[(1S,8R)-4-(4-fluoro-3,5-dimethyl-phenyl)-3-[3-(4-fluoro-1-methyl-indazol-5-yl)-2-oxo-imidazol-1-yl]-4,5,11-triazatricyclo[6.2.1.02,6]undeca-2,5-diene-11-carbonyl]indol-1-yl]-2-methyl-cyclopropyl]-4H-1,2,4-oxadiazol-5-one]
